Reference: patent US12611404B2, “Aza-aryl 1H-pyrazol-1-yl benzene sulfonamides” (ChemoCentryx, Inc., priority 2012, dated 2026)
pIC50: −log10 of the molar value.

Molecular target: T1, CCR(9) (Homo sapiens, UniProt P51686)
T1 construct: CCR(9)-expressing cells such as T cell line MOLT-4 cells; host or cells: MOLT-4 cells
T1 sequence (P51686 1-369): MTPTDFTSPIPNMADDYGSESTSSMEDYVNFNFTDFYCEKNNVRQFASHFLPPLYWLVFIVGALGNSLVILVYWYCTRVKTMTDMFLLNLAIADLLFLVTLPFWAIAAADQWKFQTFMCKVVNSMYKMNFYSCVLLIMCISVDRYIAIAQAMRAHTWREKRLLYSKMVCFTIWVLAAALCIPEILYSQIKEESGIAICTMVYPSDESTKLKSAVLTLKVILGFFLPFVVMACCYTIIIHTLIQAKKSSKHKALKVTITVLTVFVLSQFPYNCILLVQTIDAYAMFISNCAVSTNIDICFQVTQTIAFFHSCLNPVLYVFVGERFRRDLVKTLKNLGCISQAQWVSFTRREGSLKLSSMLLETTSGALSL
Experiment: serum chemotaxis (migration) assay, MOLT-4 cells in human serum, TECK
Assay type: cell-based
Conditions: read-out: A2
Method: In vitro cell chemotaxis assays can be performed (but are not limited to this format) using the 96-well microchamber (called ChemoTX™). The ChemoTX™ system is well known to those skilled in the art as a type of chemotactic/cell migration instrument. In this assay, CCR(9)-expressing cells (such as MOLT-4) are first incubated with a compound of interest, such as a possible CCR(9) antagonist at increasing concentrations. Typically, fifty thousand cells per well are used, but the amount can range from 10^3-10^6 cells per well. The chemokine ligand (for example, CCR(9) ligand TECK, typically at 50 nM (but can range from 5-100 nM)), is placed at the lower chamber and the migration apparatus is assembled. Twenty microliters of test compound-treated cells are then placed onto the membrane. Migration is allowed to take place at 37° C. for a period of time, typically 2.5 hours for CCR(9). At the end of the incubation, the number of cells that migrated across the membrane into the lower chamber is then quantified. The efficacy of a compound as an inhibitor of chemokine-mediated cell migration can be calculated as an IC50 (the concentration needed to reduce cell migration by 50%) or IC90 (for 90% inhibition).
MOLT-4 cells were obtained from the American Type Culture Collection (Manassas, VA) and cultured in RPMI tissue culture medium supplemented with 10% fetal calf serum (FCS) in a humidified 5% CO2 incubator at 37° C. Recombinant human chemokine proteins TECK was obtained from R&D Systems (Minneapolis, MN). ChemoTX® chemotaxis microchambers were purchased from Neuro Probe (Gaithersburg, MD). CyQUANT® cell proliferation kits were purchased from Molecular Probes (Eugene, Oregon). Calcium indicator dye Fluo-4 AM was purchased from Molecular Devices (Mountain View, CA).
A serum chemotaxis assay was used to determine the efficacy of potential receptor antagonists at blocking the migration mediated through chemokine receptors, such as CCR(9). This assay was performed using the ChemoTX® microchamber system with a 5-μm pore-sized polycarbonate membrane. MOLT-4 cells were collected by centrifugation at 400×g at room temperature, then suspended at 50 million/ml in human serum, containing 50 mM HEPES (final pH of 7.2). The compound being tested or an equivalent volume of its solvent (DMSO) was then added to the cell/serum mixture at a final DMSO concentration of 0.125% (v/v), and this mixture was then incubated together at 37° C. for one hour. Separately, recombinant human TECK was diluted with chemotaxis buffer (HBSS+0.1% BSA), generally spanning a range from 0.1 nM to 500 nM, after which 29 μl of diluted chemokine was placed in the lower wells of the ChemoTX® plate. The 5-μm (pore size) polycarbonate membrane was placed onto the plate, and 20 μL of the cell/compound mixture was transferred onto each well of the membrane. The plates were incubated at 37° C. for 90 minutes, after which the polycarbonate membranes were removed and 5 μl of the DNA-intercalating agent CyQUANT (Invitrogen, Carlsbad, CA) was added to the lower wells. The amount of fluorescence, corresponding to the number of migrated cells, was measured using a Spectrafluor Plus plate reader (TECAN, San Jose, CA).
The A2 values were calculated from the following equation, comparing the efficacy of the test compound with that of the DMSO-only control at equi-active chemokine levels: Log(A2)=log[drug(M)]−log [(A′/A)−1]
where A reflects the potency of the agonist in the absence of antagonist and A′ reflects the potency of the agonist in the presence of antagonist at a given concentration of drug ([drug(M)]).

pIC50, > 6.30:
Cc1cc(NS(=O)(=O)c2ccc(C(C)(C)C)cc2)n(-c2ccc(Cl)c3ncccc23)n1
COc1ccc(-n2nc(C)cc2NS(=O)(=O)c2ccc(C(C)(C)C)cc2)c2cccnc12
CC(C)Oc1ccc(S(=O)(=O)Nc2cc(C(F)F)nn2-c2cccc3ncccc23)cc1
Cc1cc(NS(=O)(=O)c2ccc(C(C)(C)C)cc2)n(-c2cccc3nc(N)ccc23)n1
COc1ccc(-n2nc(C)cc2NS(=O)(=O)c2ccc(C(C)(C)C)c(F)c2)c2cccnc12
COCc1cc(NS(=O)(=O)c2ccc(C(C)(C)C)cc2)n(-c2cccc3ncccc23)n1
Cc1cc(NS(=O)(=O)c2ccc(C(C)(C)C)c(F)c2)n(-c2ccc(Br)c3ncccc23)n1
Cc1cc(NS(=O)(=O)c2ccc(C(C)(C)C)cc2)n(-c2ccc(N)c3ncccc23)n1
Cc1cc(NS(=O)(=O)c2ccc(C(C)(C)C)c(F)c2)n(-c2ccc(C#N)c3ncccc23)n1
Cc1cc(NS(=O)(=O)c2ccc(C(C)(C)C)c(F)c2)n(-c2cccc3nc(N)ccc23)n1
Cc1cc(NS(=O)(=O)c2cc(F)c(C(C)(C)C)c(F)c2)n(-c2cccc3ncccc23)n1
CC(C)(C)c1ccc(S(=O)(=O)Nc2cc(CF)nn2-c2cccc3ncccc23)cc1F
Cc1ccc2c(-n3nc(C)cc3NS(=O)(=O)c3ccc(C(C)(C)C)cc3)cccc2n1
Cc1cc(NS(=O)(=O)c2ccc(C(C)(C)C)c(F)c2)n(-c2cccc3ncccc23)n1
CC(C)(C)c1ccc(S(=O)(=O)Nc2cc(CF)nn2-c2cccc3ncccc23)cc1
CC(C)(C)c1ccc(S(=O)(=O)Nc2cc(C(F)F)nn2-c2cccc3ncccc23)cc1
Cc1cc(NS(=O)(=O)c2ccc(C(C)(C)C)cc2)n(-c2cccc3ncccc23)n1

pIC50, 5.60 to 6.30:
Cc1cc(NS(=O)(=O)c2ccc(OC(F)(F)F)cc2)n(-c2cccc3ncccc23)n1
Cc1cc(-n2nc(C)cc2NS(=O)(=O)c2ccc(C(C)(C)C)cc2)c2cccnc2c1
CC(C)c1ccc(S(=O)(=O)Nc2cc(C(F)(F)F)nn2-c2cccc3ncccc23)cc1
CC(C)c1ccc(S(=O)(=O)Nc2cc(C(F)F)nn2-c2cccc3ncccc23)cc1
Cc1cc(NS(=O)(=O)c2ccc(C(C)(C)C)cc2)n(-c2ccnc3ccccc23)n1
Cc1cc(NS(=O)(=O)c2ccc(OC(C)C)c(F)c2)n(-c2cccc3ncccc23)n1
CC(C)(C)c1ccc(S(=O)(=O)Nc2cc(C#N)nn2-c2cccc3ncccc23)cc1
CC(C)Oc1ccc(S(=O)(=O)Nc2cc(CF)nn2-c2cccc3ncccc23)cc1
Cc1cc(NS(=O)(=O)c2ccc(C(C)(C)C)cc2)n(-c2nncc3ccccc23)n1
Cc1cc(NS(=O)(=O)c2ccc(C(C)(C)C)cc2)n(-c2nccc3ccccc23)n1
Cc1cc(NS(=O)(=O)c2ccc(C(C)(C)C)cc2)n(-c2cncc3ccccc23)n1
Cc1cc(NS(=O)(=O)c2ccc(C(C)(C)C)cc2)n(-c2cccc3c2ccc[n+]3[O-])n1
CCC(C)(C)c1ccc(S(=O)(=O)Nc2cc(C)nn2-c2cccc3ncccc23)cc1
Cc1cc(NS(=O)(=O)c2ccc(C(C)(C)C)cc2)n(-c2ccc(C#N)c3ncccc23)n1
Cc1cc(NS(=O)(=O)c2ccc(C(C)(C)C)cc2)n(-c2ccc(F)c3ncccc23)n1
Cc1cc(NS(=O)(=O)c2ccc(C(C)(C)C)cc2)n(-c2cc(N)nc3ccccc23)n1
Cc1cc(NS(=O)(=O)c2ccc(C(C)C)cc2)n(-c2cccc3ncccc23)n1
Cc1cc(NS(=O)(=O)c2ccc(C(C)(C)C)cc2)n(-c2ccc(C)c3ncccc23)n1
Cc1cc(NS(=O)(=O)c2ccc(C(C)(C)C)cc2)n(-c2n[nH]c(=O)c3ccccc23)n1
CCOc1ccc(-n2nc(C)cc2NS(=O)(=O)c2ccc(C(C)(C)C)cc2)c2cccnc12
Cc1cc(NS(=O)(=O)c2ccc(C(C)(C)C)cc2)n(-c2cccc3c(N)nccc23)n1
Cc1cc(NS(=O)(=O)c2ccc(C(C)(C)C)cc2)n(-c2ccnc3cc(F)ccc23)n1
Cc1cc(NS(=O)(=O)c2ccc(C(C)(C)C)cc2)n(-c2ccc(Br)c3ncccc23)n1
Cc1cc(NS(=O)(=O)c2ccc(C(C)(C)C)c(Cl)c2)n(-c2cccc3ncccc23)n1
CC(C)Oc1ccc(S(=O)(=O)Nc2cc(C(F)(F)F)nn2-c2cccc3cnccc23)cc1
CC(C)(C)c1ccc(S(=O)(=O)Nc2cc(C(F)F)nn2-c2cccc3ncccc23)cc1F
Cc1cc(NS(=O)(=O)c2ccc(C(C)(C)C)cc2F)n(-c2cccc3ncccc23)n1
COc1cnc(-n2nc(C)cc2NS(=O)(=O)c2ccc(C(C)(C)C)cc2)c2ccccc12
Cc1cc(NS(=O)(=O)c2ccc(OC(C)C)cc2)n(-c2cccc3ncccc23)n1
Cc1cc(NS(=O)(=O)c2ccc(C(C)(C)C)c(F)c2)n(-c2ccc(N)c3ncccc23)n1
CC(C)(C)c1ccc(S(=O)(=O)Nc2cc(C(F)(F)F)nn2-c2cccc3ncccc23)cc1
Cc1cc(NS(=O)(=O)c2ccc(OC(C)C)cc2)n(-c2cccc3cnccc23)n1
CC(C)c1ccc(S(=O)(=O)Nc2cc(C(F)(F)F)nn2-c2cccc3cnccc23)cc1
Cc1cc(NS(=O)(=O)c2ccc(C(C)(C)C)cc2)n(-c2cnc(N)c3ccccc23)n1
Cc1cc(NS(=O)(=O)c2ccc(C(C)(C)C)cc2)n(-c2nccc3ncccc23)n1
Cc1cc(NS(=O)(=O)c2ccc(C(C)(C)C)cc2)n(-c2cnnc3ccccc23)n1
Cc1cc(NS(=O)(=O)c2ccc(C(C)C)cc2)n(-c2cccc3cnccc23)n1
Cc1cc(-n2nc(C)cc2NS(=O)(=O)c2ccc(C(C)(C)C)cc2)c2ccccc2n1
Cc1cc(NS(=O)(=O)c2ccc(C(C)(C)C)cc2)n(-c2ccnc3c(F)cccc23)n1
Cc1cc(NS(=O)(=O)c2ccc(C(C)(C)C)cc2)n(-c2cccc3cnccc23)n1

pIC50, < 5.60:
Cc1cc(NS(=O)(=O)c2ccc(C(C)(C)C)cc2)n(-c2ncc(Cl)c3ccccc23)n1
CC(C)(C)c1ccc(S(=O)(=O)Nc2ccnn2-c2cccc3ncccc23)cc1
CC(C)Oc1ccc(S(=O)(=O)Nc2cc(C(F)(F)F)nn2-c2cccc3ncccc23)cc1
Cc1cc(NS(=O)(=O)c2ccc(OCC(C)C)cc2)n(-c2cccc3ncccc23)n1
Cc1cc(NS(=O)(=O)c2ccc(C(C)(C)C)cc2)n(-c2cccc3c[n+]([O-])ccc23)n1
